Results published in ChEMBL document CHEMBL4828717, “Synthetic cajaninstilbene acid derivatives eradicate methicillin-resistant Staphylococcus aureus persisters and biofilms” (Eur J Med Chem, 2021).
The source made the active and inactive calls. The rule behind the calls is not given here.

Columns and labels:
Staphylococcus aureus [1] = experiment: Antibacterial activity against methicillin resistant Staphylococcus aureus ATCC 43300 persisters assessed as reduction in colony formation at 40 ug/ml incubated for 8 hrs by colony counting method; type: functional, organism-based; conditions: dose 40.0 µg/ml
Staphylococcus aureus [2] = experiment: Antibacterial activity against methicillin resistant Staphylococcus aureus ATCC 52056 assessed as reduction in microbial growth after 16 to 18 hrs by microbroth dilution method; type: functional; conditions: time 16-18 hrs
Staphylococcus aureus [3] = experiment: Antibacterial activity against methicillin resistant Staphylococcus aureus ATCC49800 assessed as reduction in microbial growth after 16 to 18 hrs by microbroth dilution method; type: functional; conditions: time 16-18 hrs
Escherichia coli = experiment: Antibacterial activity against Escherichia coli ATCC25922 assessed as reduction in microbial growth after 16 to 18 hrs by microbroth dilution method; type: functional; conditions: ATCC 25922, time 16-18 hrs
Staphylococcus aureus [4] = experiment: Antibacterial activity against methicillin resistant Staphylococcus aureus ATCC49008 assessed as reduction in microbial growth after 16 to 18 hrs by microbroth dilution method; type: functional; conditions: time 16-18 hrs
Staphylococcus aureus [5] = experiment: Antibacterial activity against methicillin resistant Staphylococcus aureus ATCC 43300 assessed as reduction in microbial growth after 16 to 18 hrs by microbroth dilution method; type: functional; conditions: time 16-18 hrs
Staphylococcus aureus [6] = experiment: Antibacterial activity against methicillin resistant Staphylococcus aureus ATCC48966 assessed as reduction in microbial growth after 16 to 18 hrs by microbroth dilution method; type: functional; conditions: time 16-18 hrs
Staphylococcus aureus [7] = experiment: Antibacterial activity against methicillin resistant Staphylococcus aureus ATCC 62202 assessed as reduction in microbial growth after 16 to 18 hrs by microbroth dilution method; type: functional; conditions: time 16-18 hrs
Staphylococcus aureus [8] = experiment: Antibacterial activity against methicillin resistant Staphylococcus aureus ATCC515992 assessed as reduction in microbial growth after 16 to 18 hrs by microbroth dilution method; type: functional; conditions: time 16-18 hrs
Staphylococcus aureus [9] = experiment: Antibacterial activity against methicillin resistant Staphylococcus aureus ATCC513045 assessed as reduction in microbial growth after 16 to 18 hrs by microbroth dilution method; type: functional; conditions: time 16-18 hrs
[10] = (§1) Cytotoxicity against mouse RAW264.7 cells assessed as cell viability at 10 ug/ml measured after 24 hrs by MTT assay; type: cell-based; conditions: RAW264.7 cells, at 10 µg/mL, read-out: Activity
Staphylococcus aureus [11] = experiment: Antibacterial activity against methicillin resistant Staphylococcus aureus ATCC48073 assessed as reduction in microbial growth after 16 to 18 hrs by microbroth dilution method; type: functional; conditions: time 16-18 hrs
Staphylococcus aureus [12] = experiment: Antibacterial activity against methicillin resistant Staphylococcus aureus ATCC48706 assessed as reduction in microbial growth after 16 to 18 hrs by microbroth dilution method; type: functional; conditions: time 16-18 hrs
L02 = experiment: Cytotoxicity against human L02 cells assessed as cell viability at 10 ug/ml measured after 24 hrs by MTT assay; type: cell-based; conditions: l02, 24 h, dose 10 µg/ml
Staphylococcus aureus [13] = experiment: Antibacterial activity against methicillin resistant Staphylococcus aureus ATCC49025 assessed as reduction in microbial growth after 16 to 18 hrs by microbroth dilution method; type: functional; conditions: time 16-18 hrs
Staphylococcus aureus [14] = experiment: Antibacterial activity against Staphylococcus aureus ATCC 25923 assessed as reduction in microbial growth after 16 to 18 hrs by microbroth dilution method; type: functional; conditions: time 16-18 hrs
Enterococcus faecalis = experiment: Antibacterial activity against Enterococcus faecalis ATCC29212 assessed as reduction in microbial growth after 16 to 18 hrs by microbroth dilution method; type: functional; conditions: ATCC 29212, time 16-18 hrs
Pseudomonas aeruginosa = experiment: Antibacterial activity against Pseudomonas aeruginosa ATCC27853 assessed as reduction in microbial growth after 16 to 18 hrs by microbroth dilution method; type: functional; conditions: time 16-18 hrs
[15] = Toxicity in BALB/c mouse infected with methicillin-resistant Staphylococcus aureus ATCC 43300 assessed as damage in heart at 50 to 100 mg/kg, sc administered every 24 hrs for 4 days by H&E staining based light microscopic analysis; type: organism-based; conditions: in vivo, dose 50-100 mg/kg
[16] = Toxicity in BALB/c mouse infected with methicillin-resistant Staphylococcus aureus ATCC 43300 assessed as damage in liver at 50 to 100 mg/kg, sc administered every 24 hrs for 4 days by H&E staining based light microscopic analysis; type: organism-based; conditions: in vivo, dose 50-100 mg/kg
[17] = Toxicity in BALB/c mouse infected with methicillin-resistant Staphylococcus aureus ATCC 43300 assessed as damage in kidney at 50 to 100 mg/kg, sc administered every 24 hrs for 4 days by H&E staining based light microscopic analysis; type: organism-based; conditions: in vivo, dose 50-100 mg/kg
[18] = Toxicity in BALB/c mouse infected with methicillin-resistant Staphylococcus aureus ATCC 43300 assessed as damage in spleen at 50 to 100 mg/kg, sc administered every 24 hrs for 4 days by H&E staining based light microscopic analysis; type: organism-based; conditions: in vivo, dose 50-100 mg/kg
[19] = Toxicity in BALB/c mouse infected with methicillin-resistant Staphylococcus aureus ATCC 43300 assessed as damage in lung at 50 to 100 mg/kg, sc administered every 24 hrs for 4 days by H&E staining based light microscopic analysis; type: organism-based; conditions: in vivo, dose 50-100 mg/kg
RAW264.7 = experiment: as §1; type: cell-based; conditions: raw264.7, 24 h, dose 10 µg/ml

SMILES | MIC (Staphylococcus aureus [2]) [µg/mL] | MIC (Staphylococcus aureus [3]) [µg/mL] | MIC (Escherichia coli) [µg/mL] | MIC (Staphylococcus aureus [4]) [µg/mL] | MIC (Staphylococcus aureus [5]) [µg/mL] | MIC (Staphylococcus aureus [6]) [µg/mL] | MIC (Staphylococcus aureus [7]) [µg/mL] | MIC (Staphylococcus aureus [8]) [µg/mL] | MIC (Staphylococcus aureus [9]) [µg/mL] | MIC (Staphylococcus aureus [11]) [µg/mL] | MIC (Staphylococcus aureus [12]) [µg/mL] | Activity (L02) | MIC (Staphylococcus aureus [13]) [µg/mL] | MIC (Staphylococcus aureus [14]) [µg/mL] | MIC (Enterococcus faecalis) [µg/mL] | MIC (Pseudomonas aeruginosa) [µg/mL] | Activity (RAW264.7) | also measured
CCCCCCCCCC(=O)N[C@@H](Cc1c[nH]c2ccccc12)C(=O)N[C@H](CC(N)=O)C(=O)N[C@@H](CC(=O)O)C(=O)N[C@@H]1C(=O)NCC(=O)N[C@@H](CCCN)C(=O)N[C@@H](CC(=O)O)C(=O)N[C@H](C)C(=O)N[C@@H](CC(=O)O)C(=O)NCC(=O)N[C@H](CO)C(=O)N[C@@H]([C@H](C)CC(=O)O)C(=O)N[C@@H](CC(=O)c2ccccc2N)C(=O)O[C@@H]1C |  |  |  |  |  |  |  |  |  |  |  |  |  |  |  |  |  | Activity (Staphylococcus aureus [1]): inactive
CO[C@H]1/C=C/O[C@@]2(C)Oc3c(C)c(O)c4c(O)c(c(/C=N/N5CCN(C)CC5)c(O)c4c3C2=O)NC(=O)/C(C)=C\C=C\[C@H](C)[C@H](O)[C@@H](C)[C@@H](O)[C@@H](C)[C@H](OC(C)=O)[C@@H]1C |  |  |  |  |  |  |  |  |  |  |  |  |  |  |  |  |  | Activity (Staphylococcus aureus [1]): inactive
CC(C)=CCc1c(OC2CCOCC2)cc(/C=C/c2ccc(F)cc2)c(C(=O)O)c1O | 8 | 16 | > 32 | 16 | 1 | 16 | 32 | 32 | 16 | 16 | 16 | Toxic | 16 | 16 | > 32 | > 32 |  | viability at 24 h, 10 ug/ml [10]: > 60%
CN[C@H](CC(C)C)C(=O)N[C@H]1C(=O)N[C@@H](CC(N)=O)C(=O)N[C@H]2C(=O)N[C@H]3C(=O)N[C@H](C(=O)N[C@H](C(=O)O)c4cc(O)cc(O)c4-c4cc3ccc4O)[C@H](O)c3ccc(c(Cl)c3)Oc3cc2cc(c3O[C@@H]2O[C@H](CO)[C@@H](O)[C@H](O)[C@H]2O[C@H]2C[C@](C)(N)[C@H](O)[C@H](C)O2)Oc2ccc(cc2Cl)[C@H]1O [VANCOMYCIN] |  |  |  |  |  |  |  |  |  |  |  |  |  |  |  |  |  | Activity [15]: Non-Toxic; Activity [16]: Non-Toxic; Activity [17]: Non-Toxic; Activity [18]: Non-Toxic; Activity [19]: Non-Toxic
O=C(O)c1cn(C2CC2)c2cc(N3CCNCC3)c(F)cc2c1=O |  |  |  |  |  |  |  |  |  |  |  |  |  |  |  |  |  | Activity (Staphylococcus aureus [1]): inactive
CC(C)=CCc1c(OC2CCCCC2)cc(/C=C/c2ccc(C(F)(F)F)cc2)c(C(=O)O)c1O | 2 | 4 | > 32 | 4 | 1 | 4 | 2 | 2 | 2 | 4 | 4 | Toxic | 4 | 2 | > 32 | > 32 | Toxic | 
CC(C)=CCc1c(OC2CCCCC2)cc(/C=C/c2ccc(F)cc2)c(C(=O)O)c1O | 2 | 4 | > 32 | 4 | 2 | 4 | 2 | 4 | 2 | 4 | 4 | Toxic | 4 | 2 | > 32 | > 32 | Toxic | 
CC(C)=CCc1c(OCc2ccccc2)cc(/C=C/c2ccc(C(F)(F)F)cc2)c(C(=O)O)c1O | 2 | 4 | > 32 | 4 | 2 | 4 | 2 | 2 | 2 | 4 | 4 | Toxic | 4 | 4 | > 32 | > 32 | Toxic | 
CCC(C)Oc1cc(/C=C/c2ccc(F)cc2)c(C(=O)O)c(O)c1CC=C(C)C (stereo unspecified) | 2 | 4 | > 32 | 4 | 2 | 4 | 2 | 4 | 2 | 4 | 4 | Toxic | 4 | 2 | > 32 | > 32 | Toxic | 
CC(C)=CCc1c(OC2CCCC2)cc(/C=C/c2ccc(C(F)(F)F)cc2)c(C(=O)O)c1O | 2 | 2 | > 32 | 2 | 2 | 2 | 2 | 2 | 2 | 2 | 2 | Toxic | 2 | 2 | > 32 | > 32 | Toxic | 
CC(C)=CCc1c(OCCCCF)cc(/C=C/c2ccc(C(F)(F)F)cc2)c(C(=O)O)c1O | 2 | 4 | > 32 | 4 | 2 | 4 | 4 | 2 | 4 | 4 | 4 | Toxic | 4 | 4 | > 32 | > 32 | Toxic | 
CC(C)=CCc1c(OCCF)cc(/C=C/c2ccc(C(F)(F)F)cc2)c(C(=O)O)c1O | 2 | 8 | > 32 | 8 | 2 | 8 | 4 | 4 | 4 | 8 | 8 | Toxic | 8 | 4 | > 32 | > 32 | Toxic | 
CC(C)=CCc1c(OC(C)C)cc(/C=C/c2ccc(C(F)(F)F)cc2)c(C(=O)O)c1O | 2 | 2 | > 32 | 2 | 1 | 2 | 2 | 2 | 2 | 2 | 2 | Toxic | 2 | 2 | > 32 | > 32 | Toxic | 
